Assay results from patent publication US20140296281A1, “METHODS FOR SCREENING A BRCA1 LOSS-OF-FUNCTION IN A SUBJECT SUFFERING FROM A CANCER” (INSERM (INSTITUT NATIONAL DE LA SANTE ET DE LA RECHERCHE …, priority 2011, published 2014).
“Also recorded” adds a separate entry of the source.

What was measured:
[1] = target: MAPK phosphorylated p38 (P-p38) (Homo sapiens, UniProt Q16539); experiment: Western blot of phosphorylated MAPK p38; format: cell-based; conditions: MCF-7, in presence of SB
Procedure: (§1) These five antibodies were then detected with an anti-rabbit HRP-conjugated secondary antibody (1:5000) (Santa Cruz, Heidelberg, Germany). Actin expression was analyzed with the human anti-β-actin mouse monoclonal primary antibody (1:20 000) (β-actin (AC-15); A5441, Sigma-Aldrich, St Quentin Fallavier, France), and then detected with an anti-mouse HRP-conjugated secondary antibody (1:2000) (Sigma-Aldrich, St Quentin Fallavier, France).

[2] = tested on: GR P-Ser211; experiment: Western blot of GR P-Ser211; format: cell-based, human
Procedure: […] Control cells were treated with ethanol as vehicle (1:1000). Treatments were carried out in a phenol red free medium containing 5% dextran-charcoal-stripped serum for a period of 24 h in MCF-7 and MDA-MB231 and 48 h in HBE cells.
as §1

[3] = tested on: BRCA1; conditions: mouse mammary cells (Antonova and Mueller 2008); cited from earlier work

Sequence of MAPK phosphorylated p38 (P-p38) (Q16539 whole entry): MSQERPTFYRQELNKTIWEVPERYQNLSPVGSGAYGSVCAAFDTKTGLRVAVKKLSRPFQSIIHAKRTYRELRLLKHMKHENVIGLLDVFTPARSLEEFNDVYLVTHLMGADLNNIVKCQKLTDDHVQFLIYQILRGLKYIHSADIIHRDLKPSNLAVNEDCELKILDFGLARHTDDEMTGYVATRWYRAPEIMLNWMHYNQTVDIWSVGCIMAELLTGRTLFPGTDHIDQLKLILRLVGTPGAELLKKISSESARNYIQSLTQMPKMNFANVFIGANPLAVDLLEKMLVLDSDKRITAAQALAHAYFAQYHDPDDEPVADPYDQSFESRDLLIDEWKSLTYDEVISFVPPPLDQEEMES

Row | Compound | levels of P-p38 [1] | decrease of GR P-Ser211 level ([2]; MCF-7, DEX+SB compared to DEX treatment alone) | GR P-Ser211 level ([2]; MCF-7, cells exposed to SB compared to basal conditions, even with BRCA1 overexpression) | BRCA1 expression [3]
1 | Oc1ccc(-c2nc(-c3ccncc3)c(-c3ccc(F)cc3)[nH]2)cc1 [SB] | increased | also observed | constant decrease | 
2 | C[C@]12CCC(=O)C=C1CC[C@@H]1[C@@H]2[C@@H](O)C[C@@]2(C)[C@H]1CC[C@]2(O)C(=O)CO [hydrocortisone] |  |  |  | repress; also recorded: decrease
